# Source: patent US20240150322A1, “CDK9 Inhibitors” (Biolexis Therapeutics, Inc., priority 2022, published 2024)
# Experiments:
# LASCPC-01 [1] = experiment: Annexin V/7-AAD apoptosis assay; format: cell-based
# [2] = Pharmacokinetic study in rat; details: in vivo, po
# PRKD3 = PRKD3 (Homo sapiens, UniProt O94806); experiment: scanMAX panel and Kd follow-up; format: binding
# [3] = test system: pCDK9, pSer2, N-MYC, C-MYC and MCL-1; experiment: Target modulation in prostate cancer patient samples; format: cell-based; details: newly diagnosed and resistant prostate cancer patient samples
# Prostate cancer cells = experiment: Colony formation assay 2; format: cell-based; details: 0.123 to 10 μM for 72 hours
# hERG channel = target: T1, hERG channel (Homo sapiens, UniProt Q12809); experiment: Predictor hERG Fluorescence Polarization Assay; format: binding
# T1 construct: purchased
# From the text: The Predictor™ hERG Fluorescence Polarization Assay Kit was used to perform hERG channel biochemical binding studies in the absence of radioligand. Assay performance was validated with a panel of established hERG channel blockers.
# Haspin = Haspin (Homo sapiens, UniProt Q8TF76); experiment: scanMAX panel and Kd follow-up; format: binding
# TAOK3 = TAOK3 (Homo sapiens, UniProt Q9H2K8); experiment: scanMAX panel and Kd follow-up; format: binding
# [4] = test system: CDK9 downstream targets in 22Rv1 and LASCPC-01; experiment: Western blot analysis of nuclear extract; format: cell-based
# Experimental: Cytoplasmic and nuclear extracts from these cells were separated using NE-PER Nuclear and Cytoplasmic Extraction Kit (ThermoFisher). […] Relative protein expression of CDK9, N-Myc and other downstream signaling was quantified by GraphPad Prism 8 and ImageJ Software RT-PCR Gene.
# Then cells were harvested with PBS and fixed with ice-cold 70% ethanol at −20° C. overnight. The cells were then washed with ice-cold PBS 2× and then re-suspended in DAPI staining buffer and incubated in the dark for 30 minutes. The cells were analyzed using BD Fortessa flow cytometer and cell cycle distribution was analyzed using FlowJo and GraphPad Prism 8 Software.
# NCI-H660 = experiment: 2D CellTiter-Glo cell viability assay; format: cell-based; details: NCI-H660, 72 hours
# Experimental: (§1) CellTiter-Glo® 2.0 Luminescent cell viability assay reagent was purchased from Promega and 22Rv1 and LASCPC-01 cell lines were purchased from ATCC. […] An equal volume of CellTiter-Glo 2D Reagent was added to the cell suspensions and luminescence was recorded after 30-minute incubation period. […] FIG. 2 illustrates cellular antiproliferative efficacy of a benchmark CDK9 inhibitor AD-4573 on six prostate cancer cell lines over various concentrations.
# (§2) CellTiter-Glo® 2.0 Luminescent cell viability assay reagent was purchased from Promega and 22Rv1, LASCPC-01, C4-2, C4-2B and NCI-H660, DU-145, PC-3 and LNCap cell lines were obtained from ATCC and a clinical core facility at Huntsman Cancer Institute. […] The results of cell viability were obtained and IC50 values were calculated (see Table 5, below) showing sub-micromolar cell killing of these prostate cancer cells.
# LNCap = experiment: 2D CellTiter-Glo cell viability assay; format: cell-based; details: Homo sapiens, 72 hours
# Experimental: as §1, §2
# 22Rv1 = experiment: 2D CellTiter-Glo cell viability assay; format: cell-based; details: Homo sapiens; 22Rv1, 72 hours
# Experimental: as §1, §2
# LASCPC-01 [5] = experiment: 2D CellTiter-Glo cell viability assay; format: cell-based; details: LASCPC-01, 72 hours
# Experimental: as §1, §2
# DU-145 = experiment: 2D CellTiter-Glo cell viability assay; format: cell-based; details: Homo sapiens; DU-145, 72 hours
# Experimental: as §1, §2
# CDK9/cyclinT = target: T2, CDK9/cyclinT (Homo sapiens, UniProt P50750); experiment: CDK family kinase profiling, radioisotope-based assay (33P); format: biochemical; details: cell-free, read-out: IC50 against CDK9
# T2 construct: purchased Reaction Biology
# Experimental: (§3) CDKs family kinases profiling assays were performed with DiscoveRx Matrix of Kds KINOMEscan (KdELECT) and Reaction Biology using miniaturized radioisotope-based assay platform (^33P). IC50 value estimated based on the best curve fitting available.
# CDK4/cyclinD = CDK4/cyclinD (Homo sapiens, UniProt P11802); experiment: as above; format: biochemical; details: read-out: 10-dose IC50
# Experimental: as §3
# CDK7/cyclinH = target: T3, CDK7/cyclinH (Homo sapiens, UniProt P50613); experiment: as above; format: biochemical; details: read-out: 10-dose IC50
# T3 construct: purchased Reaction Biology
# Experimental: as §3
# CDK5/P21 = target: T4, CDK5/P21 (Homo sapiens, UniProt Q00535); experiment: as above; format: biochemical; details: read-out: 10-dose IC50
# T4 construct: purchased Reaction Biology
# Experimental: as §3
# human P450 isozyme 3A4 = target: T5, human P450 isozyme 3A4 (Homo sapiens, UniProt P08684); experiment: P450 isozyme inhibition assay (baculosomes); format: in vitro ADME; details: P450 3A4
# T5 construct: made in house; host or cells: insect cells infected with recombinant baculovirus
# Experimental: (§4) P450 baculosome reagents (i.e., microsomes), were prepared from insect cells infected with recombinant baculovirus containing a human P450 isozyme and a rabbit NAPDH-P450 reductase since only a single P450 isozyme is expressed over human liver microsomes (HLM).
# human P450 isozyme 2D6 = target: T6, human P450 isozyme 2D6 (Homo sapiens, UniProt P10635); experiment: P450 isozyme inhibition assay (baculosomes); format: in vitro ADME; details: P450 2D6
# T6 construct: made in house; host or cells: insect cells infected with recombinant baculovirus
# Experimental: as §4
# human P450 isozyme 2C9 = target: T7, human P450 isozyme 2C9 (Homo sapiens, UniProt P11712); experiment: P450 isozyme inhibition assay (baculosomes); format: in vitro ADME; details: P450 2C9
# T7 construct: host or cells: insect cells infected with recombinant baculovirus
# Experimental: as §4
# human P450 isozyme 1A2 = target: T8, human P450 isozyme 1A2 (Homo sapiens, UniProt P05177); experiment: P450 isozyme inhibition assay (baculosomes); format: in vitro ADME; details: P450 1A2
# T8 construct: host or cells: insect cells infected with recombinant baculovirus
# Experimental: as §4
# human P450 isozyme 2C19 = target: T9, human P450 isozyme 2C19 (Homo sapiens, UniProt P33261); experiment: P450 isozyme inhibition assay (baculosomes); format: in vitro ADME; details: P450 2C19
# T9 construct: host or cells: insect cells infected with recombinant baculovirus
# Experimental: as §4
# Sequence of TAOK3 (Q9H2K8 whole entry): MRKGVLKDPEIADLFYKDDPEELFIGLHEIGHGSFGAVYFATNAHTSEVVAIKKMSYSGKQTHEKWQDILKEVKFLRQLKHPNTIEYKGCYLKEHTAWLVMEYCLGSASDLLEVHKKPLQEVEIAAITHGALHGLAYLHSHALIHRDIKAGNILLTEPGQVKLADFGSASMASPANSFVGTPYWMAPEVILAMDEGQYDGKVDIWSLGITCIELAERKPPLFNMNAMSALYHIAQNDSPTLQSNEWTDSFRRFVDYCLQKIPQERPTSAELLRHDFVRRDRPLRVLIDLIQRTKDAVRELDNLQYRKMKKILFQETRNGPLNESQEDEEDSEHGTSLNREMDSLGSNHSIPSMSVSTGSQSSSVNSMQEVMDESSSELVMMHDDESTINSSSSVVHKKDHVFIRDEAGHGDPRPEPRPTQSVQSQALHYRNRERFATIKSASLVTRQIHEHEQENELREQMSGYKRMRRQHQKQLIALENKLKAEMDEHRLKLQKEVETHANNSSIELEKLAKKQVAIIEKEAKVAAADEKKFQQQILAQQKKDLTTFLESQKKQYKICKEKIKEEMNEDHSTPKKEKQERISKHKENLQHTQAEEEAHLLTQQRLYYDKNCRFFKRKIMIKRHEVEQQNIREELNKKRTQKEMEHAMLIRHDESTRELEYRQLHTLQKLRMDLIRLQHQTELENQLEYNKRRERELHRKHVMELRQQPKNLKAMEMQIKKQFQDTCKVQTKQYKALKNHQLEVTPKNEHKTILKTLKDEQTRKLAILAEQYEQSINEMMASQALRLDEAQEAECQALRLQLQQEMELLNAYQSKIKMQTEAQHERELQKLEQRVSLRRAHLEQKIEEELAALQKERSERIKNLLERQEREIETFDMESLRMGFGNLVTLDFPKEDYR
# Sequence of Haspin (Q8TF76 whole entry): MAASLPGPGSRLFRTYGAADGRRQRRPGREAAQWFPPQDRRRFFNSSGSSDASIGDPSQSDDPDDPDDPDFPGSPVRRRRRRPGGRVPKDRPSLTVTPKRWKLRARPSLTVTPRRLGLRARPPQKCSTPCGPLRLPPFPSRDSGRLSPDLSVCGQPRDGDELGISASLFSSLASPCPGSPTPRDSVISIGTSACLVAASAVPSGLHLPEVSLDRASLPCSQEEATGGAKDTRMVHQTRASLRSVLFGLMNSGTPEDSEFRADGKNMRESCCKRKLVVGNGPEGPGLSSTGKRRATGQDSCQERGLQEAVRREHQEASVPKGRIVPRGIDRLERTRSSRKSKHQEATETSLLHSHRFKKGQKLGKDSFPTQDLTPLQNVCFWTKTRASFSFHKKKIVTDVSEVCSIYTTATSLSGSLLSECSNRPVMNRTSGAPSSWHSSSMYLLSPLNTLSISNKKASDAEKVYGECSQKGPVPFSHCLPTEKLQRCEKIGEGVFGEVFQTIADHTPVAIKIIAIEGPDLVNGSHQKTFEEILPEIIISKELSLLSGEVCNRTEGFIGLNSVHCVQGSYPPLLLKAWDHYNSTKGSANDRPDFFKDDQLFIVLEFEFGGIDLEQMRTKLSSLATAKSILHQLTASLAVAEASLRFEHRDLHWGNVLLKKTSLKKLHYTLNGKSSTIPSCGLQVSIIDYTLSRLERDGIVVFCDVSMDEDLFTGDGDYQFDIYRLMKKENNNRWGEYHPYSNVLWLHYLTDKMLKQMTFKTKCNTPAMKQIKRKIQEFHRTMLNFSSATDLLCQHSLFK
# T1 sequence (Q12809 whole entry): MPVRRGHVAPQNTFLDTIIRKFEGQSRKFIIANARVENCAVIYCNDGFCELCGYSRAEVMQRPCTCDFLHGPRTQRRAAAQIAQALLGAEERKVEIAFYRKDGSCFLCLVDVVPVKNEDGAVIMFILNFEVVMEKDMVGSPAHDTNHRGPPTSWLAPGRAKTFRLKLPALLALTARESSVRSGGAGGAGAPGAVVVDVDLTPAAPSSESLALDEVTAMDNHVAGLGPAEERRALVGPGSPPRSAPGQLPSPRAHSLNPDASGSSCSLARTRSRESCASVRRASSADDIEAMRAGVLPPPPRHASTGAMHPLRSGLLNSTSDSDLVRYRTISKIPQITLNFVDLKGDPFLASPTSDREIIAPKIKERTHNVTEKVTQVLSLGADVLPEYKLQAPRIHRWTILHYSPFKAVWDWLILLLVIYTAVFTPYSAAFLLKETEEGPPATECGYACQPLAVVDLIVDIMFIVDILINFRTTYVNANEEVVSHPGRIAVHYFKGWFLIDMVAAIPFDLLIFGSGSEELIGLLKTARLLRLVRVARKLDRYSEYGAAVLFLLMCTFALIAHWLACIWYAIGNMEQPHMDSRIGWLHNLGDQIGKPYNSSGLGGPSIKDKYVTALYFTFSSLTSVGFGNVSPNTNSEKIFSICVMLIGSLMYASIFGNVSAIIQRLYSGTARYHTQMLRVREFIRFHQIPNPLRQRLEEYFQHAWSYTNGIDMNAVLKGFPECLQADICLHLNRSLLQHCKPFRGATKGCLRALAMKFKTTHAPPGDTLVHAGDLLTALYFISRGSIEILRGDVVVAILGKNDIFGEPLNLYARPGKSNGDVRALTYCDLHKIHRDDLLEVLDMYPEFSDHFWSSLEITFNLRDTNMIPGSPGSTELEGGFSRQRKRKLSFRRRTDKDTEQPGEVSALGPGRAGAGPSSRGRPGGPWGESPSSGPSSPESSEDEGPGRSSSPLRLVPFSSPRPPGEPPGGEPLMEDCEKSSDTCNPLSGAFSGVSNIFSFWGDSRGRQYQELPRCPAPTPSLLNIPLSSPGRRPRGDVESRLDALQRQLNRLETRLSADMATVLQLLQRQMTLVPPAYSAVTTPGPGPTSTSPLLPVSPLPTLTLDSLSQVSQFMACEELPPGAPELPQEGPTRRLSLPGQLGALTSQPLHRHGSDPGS
# Sequence of PRKD3 (O94806 whole entry): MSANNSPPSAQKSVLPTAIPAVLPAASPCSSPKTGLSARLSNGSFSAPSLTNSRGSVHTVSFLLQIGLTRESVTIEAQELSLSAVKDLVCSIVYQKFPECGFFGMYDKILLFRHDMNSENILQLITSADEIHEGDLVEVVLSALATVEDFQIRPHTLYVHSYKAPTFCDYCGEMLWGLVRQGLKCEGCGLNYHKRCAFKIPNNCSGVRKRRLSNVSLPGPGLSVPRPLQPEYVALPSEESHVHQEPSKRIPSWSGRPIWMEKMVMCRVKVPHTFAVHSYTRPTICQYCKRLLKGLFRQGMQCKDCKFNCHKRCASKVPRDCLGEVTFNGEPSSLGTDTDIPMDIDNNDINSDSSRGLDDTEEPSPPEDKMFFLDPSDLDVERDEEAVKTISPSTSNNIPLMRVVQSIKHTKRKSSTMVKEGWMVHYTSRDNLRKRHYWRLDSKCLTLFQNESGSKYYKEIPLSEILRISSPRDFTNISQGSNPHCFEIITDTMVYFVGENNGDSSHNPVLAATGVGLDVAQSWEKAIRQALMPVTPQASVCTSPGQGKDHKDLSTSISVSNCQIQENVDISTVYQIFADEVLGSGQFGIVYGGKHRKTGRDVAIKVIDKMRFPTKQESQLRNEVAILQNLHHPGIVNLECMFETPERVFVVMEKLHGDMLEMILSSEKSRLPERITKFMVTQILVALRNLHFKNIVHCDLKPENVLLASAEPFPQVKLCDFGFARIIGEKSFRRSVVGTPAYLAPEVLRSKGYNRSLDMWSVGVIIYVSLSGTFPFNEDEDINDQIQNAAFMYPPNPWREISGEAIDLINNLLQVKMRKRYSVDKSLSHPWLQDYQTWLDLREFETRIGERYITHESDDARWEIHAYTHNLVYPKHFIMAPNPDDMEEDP
# T6 sequence (P10635 whole entry): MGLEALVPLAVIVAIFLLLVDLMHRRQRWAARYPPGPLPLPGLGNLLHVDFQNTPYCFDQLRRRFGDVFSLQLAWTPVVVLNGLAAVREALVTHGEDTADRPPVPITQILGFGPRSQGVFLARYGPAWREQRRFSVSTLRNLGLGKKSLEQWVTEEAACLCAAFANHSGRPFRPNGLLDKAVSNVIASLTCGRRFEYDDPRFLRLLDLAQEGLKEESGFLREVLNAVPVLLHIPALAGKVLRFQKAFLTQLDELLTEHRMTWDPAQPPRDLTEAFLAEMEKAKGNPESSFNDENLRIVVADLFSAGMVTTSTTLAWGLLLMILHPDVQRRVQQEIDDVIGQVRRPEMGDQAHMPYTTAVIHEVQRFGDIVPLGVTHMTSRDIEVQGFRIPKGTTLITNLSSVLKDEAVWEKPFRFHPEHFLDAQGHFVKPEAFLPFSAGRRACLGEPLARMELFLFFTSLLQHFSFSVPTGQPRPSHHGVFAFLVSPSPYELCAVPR
# T5 sequence (P08684 whole entry): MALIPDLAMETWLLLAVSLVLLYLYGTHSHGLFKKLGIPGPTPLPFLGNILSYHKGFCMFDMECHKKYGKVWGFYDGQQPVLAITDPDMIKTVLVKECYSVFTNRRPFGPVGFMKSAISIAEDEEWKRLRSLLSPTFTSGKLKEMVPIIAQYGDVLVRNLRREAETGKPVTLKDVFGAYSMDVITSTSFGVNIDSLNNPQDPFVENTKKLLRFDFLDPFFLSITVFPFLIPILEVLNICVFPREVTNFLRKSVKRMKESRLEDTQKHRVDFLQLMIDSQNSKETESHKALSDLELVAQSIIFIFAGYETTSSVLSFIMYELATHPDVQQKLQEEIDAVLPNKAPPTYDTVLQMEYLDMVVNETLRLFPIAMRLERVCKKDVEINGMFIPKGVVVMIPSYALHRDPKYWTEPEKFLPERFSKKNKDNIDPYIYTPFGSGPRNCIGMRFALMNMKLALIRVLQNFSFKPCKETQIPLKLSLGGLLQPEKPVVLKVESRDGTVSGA
smiles,measurement,setting,value
"CC(C)c1c2cc(-c3ccnc(N[C@H]4CC[C@H](N)C4)n3)ccc2nn1C [Compound I-2, (1S,3S)-[3-[4-(3-isopropyl-2-methylindazol-5-yl)pyrimidin-2-yl]aminocyclopentan-1-yl]-1,3-diamine]",apoptosis by Annexin V/7-AAD staining,LASCPC-01 [1]; LASCPC-01,increased apoptosis in a dose dependent manner
same,cell death,"LASCPC-01 [1]; LASCPC-01, treated for 72 hours",69%
same,bioavailability,[2],38%
same,Kd,PRKD3; PRKD3,230 nM
same,remaining binding at 1 µM,"PRKD3; PRKD3, 1 μM, read-out: % of control activity",0 to 1%
same,"pCDK9, pSer2 and downstream N-MYC, C-MYC and MCL-1",[3],reduced
same,colony formation,Prostate cancer cells,complete inhibition of colony formation
same,hERG activity,hERG channel,no hERG activity
same,IC50,hERG channel; fluorescence polarization,57800 nM
same,Kd,Haspin,2.8 nM
same,remaining binding at 1 µM,"Haspin; 1 μM, read-out: % of control activity",0 to 1%
same,Kd,TAOK3; TAOK3,9.2 nM
same,remaining binding at 1 µM,"TAOK3; TAOK3, 1 μM, read-out: % of control activity",0 to 1%
same,CDK9 downstream targets (Western blot),[4],inhibited the CDK9 downstream targets
same,IC50,NCI-H660,448 nM
same,IC50,LNCap,80.4 nM
same,IC50,22Rv1,132 nM
same,IC50,LASCPC-01 [5]; 72 h,58 nM
same,IC50,LASCPC-01 [5],58 nM
same,IC50,DU-145,7720 nM
same,IC50,CDK9/cyclinT,< 5 nM
same,IC50,CDK4/cyclinD,22.8 nM
same,IC50,CDK7/cyclinH,119 nM
same,IC50,CDK5/P21,245 nM
same,IC50,human P450 isozyme 3A4,31100 nM
same,IC50,human P450 isozyme 2D6,100000 nM
same,IC50,human P450 isozyme 2C9,50800 nM
same,IC50,human P450 isozyme 1A2,29400 nM
same,IC50,human P450 isozyme 2C19,28300 nM
